The values that follow come from patent publication US6271238A, “Acetamide derivatives and protease inhibitors” (Nippon Kayaku Kabushiki Kaisha, priority 1996, dated 2001).

Common to all, as to type: biochemical
One test addresses T1, human chymase (Homo sapiens, UniProt P23946).
T1 construct: 60 g human tonsils were finely divided by scissors and a scalpel; from tissue; host or cells: human tonsils
T1 sequence (P23946 22-247): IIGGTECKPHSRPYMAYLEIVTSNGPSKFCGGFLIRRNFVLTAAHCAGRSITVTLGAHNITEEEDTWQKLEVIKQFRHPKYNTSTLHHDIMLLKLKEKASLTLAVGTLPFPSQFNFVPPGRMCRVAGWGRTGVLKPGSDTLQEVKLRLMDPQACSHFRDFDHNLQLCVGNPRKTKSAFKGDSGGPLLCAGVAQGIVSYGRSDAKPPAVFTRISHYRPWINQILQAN
Briefly: Inhibitory activity on human chymase (angiotensin I as substrate). As to conditions: for IC50: substrate angiotensin I, pH 8.0, 37° C., 60 min, read-out: Human Chymase (IC50: nM), 50% inhibitory concentration. The source says: It is known that chymase is present in tissues of various animals, and its isolation and purification methods are described in Anal. Biochem., 137, 449 (1984) and FEBS Letters, 323, 119 (1993). In the present invention, chymase was purified by the methods described in these literatures, and the present compounds were examined for inhibitory activity on chymase, inhibitory action on activation of mast cells and eosinophils, and pharmacological action in animals. Hereinafter, specific methods are described. 50 g rat tongue was finely divided by scissors and a scalpel, suspended in 0.1 M phosphate buffer (pH 8.0), and disrupted by a Polytron homogenizer for 5 minutes to prepare a crude chymase enzyme solution. […] The supernatant was applied to an octyl Sepharose 4B column (40×100 mm) previously equilibrated with 0.1 M phosphate buffer (pH 8.0) containing 2 M sodium chloride and 5% ammonium sulfate, and the protein was eluted with a linear concentration gradient of from 2 M to 0 M sodium chloride. An active fraction decomposing succinyl leucyl leucyl valyl tyrosyl methylcumarylamide (hereinafter referred to as the synthetic chymase substrate, a product of Peptide Kenkyusho) was recovered and concentrated and this product was used as a purified rat chymase in the following activity measurement. (B) Preparation of human chymase 60 g human tonsils were finely divided by scissors and a scalpel, suspended in 0.1 M phosphate buffer (pH 8.0), and A-disrupted by a Polytron homogenizer for 5 minutes to prepare a crude chymase enzyme solution. It was centrifuged at 22000×g for 30 minutes, and the precipitates were used as a chymase enzyme fraction. […] The supernatant was concentrated by an ultrafiltration membrane, then applied to […] column (6.0×300 mm), and eluted with 0.1 M phosphate buffer (pH 8.0). An active fraction decomposing the synthetic chymase substrate was recovered and concentrated and this product was used as a purified human chymase in the following activity measurement. (D) Measurement of inhibitory activity on chymase (b) Measurement using angiotensin I as substrate The inhibitory activity on the human chymase and dog chymase was measured using angiotensin I (Peptide Kenkyusho) as substrate besides the above synthetic substrate. […] After the end of the reaction, produced angiotensin II was immediately measured by high performance liquid chromatography to determine the activity of the chymase to calculate 50% inhibitory concentration (IC50: nM). The test was conducted several times. Chymase was prepared for each test in the manner described above. The compounds examined were compounds prepared in the above-described examples. […] 50% Inhibitory concentration (IC50: nM) of each compound toward rat chymase, dog […] human […] Substrate: Succinyl leucyl leucyl valyl tyrosyl methylcoumarylamide (for rat […] angiotensin I (for human and dog chymase)

The next test concerns the target T2, rat chymase (Rattus norvegicus, UniProt P09650).
T2 construct: 50 g rat tongue was finely divided by scissors and a scalpel; from tissue; host or cells: rat tongue
T2 sequence (P09650 21-260): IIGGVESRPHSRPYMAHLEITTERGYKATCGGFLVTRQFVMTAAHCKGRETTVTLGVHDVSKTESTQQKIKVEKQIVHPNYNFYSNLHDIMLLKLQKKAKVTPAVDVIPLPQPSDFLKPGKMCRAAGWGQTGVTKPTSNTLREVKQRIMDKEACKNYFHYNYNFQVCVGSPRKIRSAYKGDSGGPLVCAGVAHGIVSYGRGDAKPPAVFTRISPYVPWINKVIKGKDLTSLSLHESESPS
Briefly: Inhibitory activity on rat chymase (synthetic substrate). The note with it: substrate succinyl leucyl leucyl valyl tyrosyl methylcoumarylamide; pH 8.0, 37° C., 15 min; read-out: Rat Chymase (IC50: nM), 50% inhibitory concentration. The procedure:
In the present invention, chymase was purified by the methods described in these literatures, and the present compounds were examined for inhibitory activity on chymase, inhibitory action on activation of mast cells and eosinophils, and pharmacological action in animals. Hereinafter, specific methods are described. […] 50 g rat tongue was finely divided by scissors and a scalpel, suspended in 0.1 M phosphate buffer (pH 8.0), and disrupted by a Polytron homogenizer for 5 minutes to prepare a crude chymase enzyme solution. […] The supernatant was applied to an octyl Sepharose 4B column (40×100 mm) previously equilibrated with 0.1 M phosphate buffer (pH 8.0) containing 2 M sodium chloride and 5% ammonium sulfate, and the protein was eluted with a linear concentration gradient of from 2 M to 0 M sodium chloride. […] (D) Measurement of inhibitory activity on chymase (a) Measurement using the synthetic substrate The synthetic chymase substrate was used for measurement of the inhibitory activity on the rat chymase as a subtrate, and the fluorescence of formed aminomethylcoumarin after reaction was measured by a spectrophotometer. […] The test was conducted several times. Chymase was prepared for each test in the manner described above. The compounds examined were compounds prepared in the above-described examples. […] Succinyl leucyl leucyl valyl tyrosyl methylcoumarylamide (for rat […] angiotensin I (for human and dog chymase)

In a further test the target is T3, dog chymase (Canis lupus familiaris, UniProt P21842).
T3 construct: 60 g dog heart was finely divided by scissors and a scalpel; from tissue; host or cells: dog heart
T3 sequence (P21842 22-249): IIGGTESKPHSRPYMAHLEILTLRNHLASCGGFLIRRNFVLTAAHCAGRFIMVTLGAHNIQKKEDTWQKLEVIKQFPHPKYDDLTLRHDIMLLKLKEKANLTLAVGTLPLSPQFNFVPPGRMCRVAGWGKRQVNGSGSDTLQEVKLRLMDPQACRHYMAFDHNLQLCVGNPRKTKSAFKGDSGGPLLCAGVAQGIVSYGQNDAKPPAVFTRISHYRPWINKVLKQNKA
Briefly: Inhibitory activity on dog chymase (angiotensin I as substrate). As to conditions: pH 8.0, 37° C., 60 min, read-out: Dog Chymase (IC50: nM), 50% inhibitory concentration. The source says: It is known that chymase is present in tissues of various animals, and its isolation and purification methods are described in Anal. Biochem., 137, 449 (1984) and FEBS Letters, 323, 119 (1993). In the present invention, chymase was purified by the methods described in these literatures, and the present compounds were examined for inhibitory activity on chymase, inhibitory action on activation of mast cells and eosinophils, and pharmacological action in animals. Hereinafter, specific methods are described. (c) Preparation of dog chymase 60 g dog heart was finely divided by scissors and a scalpel, suspended in 0.1 M phosphate buffer (pH 8.0), and disrupted by a Polytron homogenizer for 5 minutes to prepare a crude chymase enzyme solution. It was centrifuged at 22000×g for 15 minutes, and the precipitates were used as a chymase enzyme fraction. […] An active fraction decomposing the synthetic chymase substrate was recovered and concentrated and this product was used as a purified dog chymase in the following activity measurement. (D) Measurement of inhibitory activity on chymase (b) Measurement using angiotensin I as substrate The inhibitory activity on the human chymase and dog chymase was measured using angiotensin I (Peptide Kenkyusho) as substrate besides the above synthetic substrate. […] After the end of the reaction, produced angiotensin II was immediately measured by high performance liquid chromatography to determine the activity of the chymase to calculate 50% inhibitory concentration (IC50: nM). The test was conducted several times. Chymase was prepared for each test in the manner described above. The compounds examined were compounds prepared in the above-described examples. […] 50% Inhibitory concentration (IC50: nM) of each compound toward rat chymase, dog […] human […] Substrate: Succinyl leucyl leucyl valyl tyrosyl methylcoumarylamide (for rat […] angiotensin I (for human and dog chymase)

The test system of another test is other human proteases. Briefly: Inhibitory activity on other human proteases (summary). The procedure:
(E) Measurement of inhibitory activity on proteases other than chymase
The inhibitory activity of the present compounds on human elastase, human cathepsin G, human urokinase, human thrombin, human plasmin, and human factor Xa was determined using their corresponding synthetic substrates in the same manner as for chymase. All the above proteases were those commercially available from Boehringer Mannheim or purified by a combination of known methods. The synthetic substrates were those produced by Peptide Renkyusho. The synthetic substrates for the respective proteases are as follows.
The test was conducted several times. Chymase was prepared for each test in the manner described above. The compounds examined were compounds prepared in the above-described examples.

Consider `CC(=O)C(=O)C(Cc1ccccc1)NC(=O)Cn1c(-c2ccccc2)ncc(NC(=O)OC(C)(C)C)c1=O` (stereo not drawn) [Compound 37, 2-(5-t-Butyloxycarbonylamino-6-oxo-1,6-dihydro-2-phenyl-1-pyrimidinyl)-N-(2,3-dioxo-1-phenylmethyl) butylacetamide], for which the IC50 at human chymase is 673 nM; at rat chymase, 2900 nM; at dog chymase it was 22 nM.
With `CC(C)(C)OC(=O)Nc1cnc(-c2ccccc2)n(CC(=O)NC(Cc2ccccc2)C(=O)C(=O)CCc2ccccc2)c1=O` (stereo not drawn) [Compound 41], the IC50 on human chymase came to 148 nM; at rat chymase it was 740 nM; at dog chymase it was 13 nM.
Consider `Nc1cnc(-c2ccccc2)n(CC(=O)NC(Cc2ccccc2)C(=O)C(=O)c2ccccc2)c1=O` (stereo not drawn) [Compound 46], for which the IC50 on human chymase came out at 1590 nM; on rat chymase, 2800 nM; on dog chymase it was 494 nM.
For `Nc1cnc(-c2ccccc2)n(CC(=O)NC(Cc2ccccc2)C(=O)C(=O)CCCC(=O)O)c1=O` (stereo not drawn) [Compound 48] the same measures were 314 nM, more than 10000 nM and 33 nM.
With `CC(=O)C(=O)C(Cc1ccc(O)c(F)c1)NC(=O)Cn1c(-c2ccccc2)ncc(N)c1=O` (stereo not drawn) [Compound 50], the “inhibitory activity on human chymase, in words” value on human chymase is recorded as “strong inhibitory activity on human chymase”. In addition, the figures for the IC50 on human chymase, at rat chymase and at dog chymase were 73 nM, 690 nM and 19 nM, respectively. Besides, the “inhibitory activity on other human proteases, in words” value in the test on other human proteases is recorded as “no inhibitory activity on other human proteases”.
Regarding `CC(=O)C(=O)C(Cc1ccc(F)cc1)NC(=O)Cn1c(-c2ccccc2)ncc(NC(=O)OC(C)(C)C)c1=O` (stereo not drawn) [Compound 55], the results for the IC50 on human chymase, on rat chymase and on dog chymase were more than 10000 nM, 920 nM and 98 nM, respectively.
The like results for `CC(=O)C(=O)C(Cc1ccc(Cl)cc1)NC(=O)Cn1c(-c2ccccc2)ncc(N)c1=O` (stereo not drawn) [Compound 58] were, in that order, 2850 nM, 340 nM and 71 nM.
On to `CC(=O)C(=O)C(Cc1cccc(C)c1)NC(=O)Cn1c(-c2ccccc2)ncc(N)c1=O` (stereo not drawn) [Compound 60], for which the IC50 was found to be 101 nM at human chymase, 450 nM at rat chymase and 9.1 nM at dog chymase.
The like results for `CC(=O)C(=O)C(Cc1cccc(Cl)c1)NC(=O)Cn1c(-c2ccccc2)ncc(N)c1=O` (stereo not drawn) [Compound 62] were, in that order, 131 nM, 200 nM and 5 nM.
For `Nc1cnc(-c2ccccc2)n(CC(=O)NC(Cc2ccccc2)C(=O)C(=O)CCCOc2ccccn2)c1=O` (stereo not drawn) [Compound 75], at human chymase, the “inhibitory activity on human chymase, in words” value is listed as “strong inhibitory activity on human chymase”. Besides, the IC50 on human chymase stood at 2.6 nM; on rat chymase, 220 nM; on dog chymase, 1 nM. Further, the “inhibitory activity on other human proteases, in words” value with other human proteases was “no inhibitory activity on other human proteases”.
Consider `CC(=O)Nc1cnc(-c2ccccc2)n(CC(=O)NC(Cc2ccccc2)C(=O)C(=O)CCCn2ccccc2=O)c1=O` (stereo not drawn) [Compound 76], for which the IC50 was found to be 122 nM at human chymase, 190 nM on rat chymase and 0.19 nM on dog chymase.
Consider `O=C(Cn1c(-c2ccccc2)ncc(NS(=O)(=O)Cc2ccccc2)c1=O)NC(Cc1ccccc1)C(=O)C(=O)CCCOc1ccccn1` (stereo not drawn) [Compound 77, 2-(5-Benzylsulfonylamino-6-oxo-2-phenyl-1,6-dihydropyrimidine-1-yl)-N-{2,3-dioxo-1-phenylmethyl-6-(2-pyridyloxy)}hexylacetamide], for which the “inhibitory activity on human chymase, in words” value at human chymase was “strong inhibitory activity on human chymase”. The results for the IC50 at human chymase, at rat chymase and on dog chymase were 7 nM, 48 nM and 1.4 nM, respectively. Besides, in the test with other human proteases, the “inhibitory activity on other human proteases, in words” value was “no inhibitory activity on other human proteases”.
With `O=C(Cn1c(-c2ccccc2)ncc(NC(=O)C2CCOC2)c1=O)NC(Cc1ccccc1)C(=O)C(=O)CCCc1ccccc1` (stereo not drawn) [Compound 81], the results for the IC50 on human chymase, on rat chymase and on dog chymase were 114 nM, 150 nM and 0.29 nM, respectively.
